Measurements published in paper PMC3914206.

Experiments:
panel of 442 kinases [1] = biological target: T1, panel of 442 kinases (Homo sapiens, UniProt P54760); type: binding; conditions: Compound Concentration 10 µM
T1 construct: purchased KINOMEscan
T1 sequence (P54760 16-987): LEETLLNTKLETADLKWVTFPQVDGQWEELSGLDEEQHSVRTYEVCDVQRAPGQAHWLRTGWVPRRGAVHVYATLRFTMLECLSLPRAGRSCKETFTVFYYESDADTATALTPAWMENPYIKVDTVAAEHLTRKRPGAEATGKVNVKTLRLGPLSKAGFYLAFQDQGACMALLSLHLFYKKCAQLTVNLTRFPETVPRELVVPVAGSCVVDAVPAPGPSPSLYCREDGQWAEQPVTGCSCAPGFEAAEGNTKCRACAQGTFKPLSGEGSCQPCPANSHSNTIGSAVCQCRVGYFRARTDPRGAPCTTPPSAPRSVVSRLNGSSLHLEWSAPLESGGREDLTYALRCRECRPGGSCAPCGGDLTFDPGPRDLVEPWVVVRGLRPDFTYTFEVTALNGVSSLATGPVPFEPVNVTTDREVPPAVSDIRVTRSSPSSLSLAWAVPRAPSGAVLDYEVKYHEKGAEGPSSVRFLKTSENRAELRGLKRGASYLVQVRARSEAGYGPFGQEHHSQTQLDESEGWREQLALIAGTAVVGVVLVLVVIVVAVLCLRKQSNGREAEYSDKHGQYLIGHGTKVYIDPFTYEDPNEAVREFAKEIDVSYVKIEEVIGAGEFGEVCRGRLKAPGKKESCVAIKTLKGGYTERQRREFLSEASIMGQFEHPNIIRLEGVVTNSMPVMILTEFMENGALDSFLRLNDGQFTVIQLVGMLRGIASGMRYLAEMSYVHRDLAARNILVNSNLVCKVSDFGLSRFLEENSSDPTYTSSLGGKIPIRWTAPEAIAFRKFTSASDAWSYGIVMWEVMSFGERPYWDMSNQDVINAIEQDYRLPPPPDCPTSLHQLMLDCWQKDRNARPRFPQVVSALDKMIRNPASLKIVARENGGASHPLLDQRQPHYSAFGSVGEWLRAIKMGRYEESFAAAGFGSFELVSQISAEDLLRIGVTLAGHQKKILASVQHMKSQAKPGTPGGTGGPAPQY
Excerpt: (§1) We assessed the selectivity of members of this scaffold using the KINOMEscan methodology across a near comprehensive panel of 442 kinases [[18,27]].

panel of 442 kinases [2] = biological target: T2, panel of 442 kinases (Homo sapiens, UniProt Q8NG66); type: binding; conditions: Compound Concentration 10 µM
T2 construct: purchased KINOMEscan
T2 sequence (Q8NG66 1-645): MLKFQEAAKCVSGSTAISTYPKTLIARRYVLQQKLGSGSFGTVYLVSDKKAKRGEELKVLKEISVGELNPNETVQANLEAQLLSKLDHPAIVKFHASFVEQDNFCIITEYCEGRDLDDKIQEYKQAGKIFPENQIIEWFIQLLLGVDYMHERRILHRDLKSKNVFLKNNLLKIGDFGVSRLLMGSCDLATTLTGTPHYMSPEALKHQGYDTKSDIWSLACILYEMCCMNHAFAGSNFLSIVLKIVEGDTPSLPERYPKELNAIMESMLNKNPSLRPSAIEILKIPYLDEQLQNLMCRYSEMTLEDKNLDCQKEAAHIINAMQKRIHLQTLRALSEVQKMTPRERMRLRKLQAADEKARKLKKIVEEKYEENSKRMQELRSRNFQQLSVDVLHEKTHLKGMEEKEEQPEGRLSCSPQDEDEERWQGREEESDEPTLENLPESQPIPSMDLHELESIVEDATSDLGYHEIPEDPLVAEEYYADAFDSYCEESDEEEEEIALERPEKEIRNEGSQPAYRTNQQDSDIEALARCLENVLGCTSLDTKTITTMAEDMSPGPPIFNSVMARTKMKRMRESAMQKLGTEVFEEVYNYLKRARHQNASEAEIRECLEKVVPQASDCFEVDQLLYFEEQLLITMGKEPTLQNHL
Excerpt: as §1

Structure (SMILES) | KINOMEscan: EPHB4 (panel of 442 kinases [1]) | KINOMEscan: NEK11 (panel of 442 kinases [2])
COc1cc(C(=O)N2CCC(N3CCN(C)CC3)CC2)ccc1Nc1ncc2c(n1)N(C1CCCC1)c1ccccc1C(=O)N2C [Compound 25, 11-cyclopentyl-2-((2-methoxy-4-(4-(4-methylpiperazin-1-yl)piperidine-1-carbonyl)phenyl)amino)-5-methyl-5H-benzo[e]pyrimido[5,4-b][1,4]diazepin-6(11H)-one] | 100 | 100
COc1cc(C(=O)N2CCC(N3CCN(C)CC3)CC2)ccc1Nc1ncc2c(n1)N(C)c1ccccc1C(=O)N2C [15 (LRRK2-IN-1)] | 100 | 100
CCOc1cc(C(=O)N2CCC(N3CCN(C)CC3)CC2)ccc1Nc1ncc2c(n1)N(C1CCCC1)c1ccccc1C(=O)N2C [Compound 26] | 100 | 100
